Results reported in paper PMC8805583, “Discovery of Herbacetin as a Novel SGK1 Inhibitor to Alleviate Myocardial Hypertrophy” (Advanced Science, 2021).

Assays:
[1] = test system: SGK1(S422D)-transfected primary cardiomyocytes; assay: S422D SGK1-transfected primary cardiac myocytes (western blot, confocal microscopy); format: cell-based, rat
Procedure: Figure 5 HBT blocks induction of cardiac hypertrophic responses and the SGK1/FoxO1 signaling pathway. A) Cardiomyocytes were treated with 50 µmol PE in the presence or absence of Ext.R (50 µg mL^−1) or HBT (50 µmol) for 48 h. Cardiomyocytes were identified by cytoskeleton staining through the binding of phalloidin to F‐actin (green). Images were acquired using an ImageXpress Micro Confocal High‐Content Imaging System (Molecular Devices), with a 40 × PlanFluor objective. Relative cell area was quantified by the analysis module of […] High‐Content Image and Analysis Software (Molecular Devices). Control group (Ctrl), PE group, PE plus Ext.R group (Ext.R), and PE plus HBT group (HBT), n = 3 independent experiments, Scale bar, 50 µm. B,C) Quantification of relative ANP and BNP in cardiomyocytes treated with Ext.R or HBT, n = 3 independent experiments. D) Western blot analysis of related proteins in PE‐treated cardiomyocytes, n = 3–4 independent experiments. E) Co‐IP and western blot analysis of SGK1‐FoxO1 interaction in cardiomyocytes, n = 3 independent experiments. F) Western blot analysis of related proteins in nontransfected (control adenovirus) and in ^S422DSGK1‐transfected primary cardiac myocytes treated with DMSO as solvent control (^S422DSGK1‐transf. group) or HBT (50 µmol, ^S422DSGK1‐transf.+HBT group), n = 3 independent experiments. G) Confocal microscopy of nuclear translocation of FoxO1 in nontransfected (control adenovirus), ^S422DSGK1‐transfected cardiomyocytes treated with HBT (50 µmol) or DMSO as solvent control. Green signal represents FoxO1 and white arrow represents the translocation of FoxO1 to nuclei, n = 3 independent experiments, Scale bar, 25 µm. All data were analyzed using one‐way ANOVA and data were expressed as means ± SD, ##p < 0.01 versus Ctrl group, *p < 0.05, **p < 0.01 versus PE group or ^S422DSGK1‐transf. group.
In the present study, we studied HBT's effect on protein binding between SGK1 and FoxO1 by coimmunoprecipitation (Figure 5E). […] Nevertheless, as previously reported,^[ [30] ^] […] Supportively, after transfection with the SGK1(S422D) plasmid, we consistently detected increased cytoplasmic signal of FoxO1 compared to nontransfected cells in which the majority of FoxO1 signal was distributed in the nucleus.
SGK1 mutant plasmids and adenovirus were constructed by Vigene Bioscience. All the transfection assays were performed using Lipofectamine 2000 according to the manufacturer's protocol. Adenovirus (Ad‐^S422DSGK1) was diluted in DMEM and administered at a dose of 100 MOI in primary cardiomyocytes.

[2] = Pharmacokinetics and tissue distribution after single oral administration; format: in vivo, Sprague-Dawley rats; settings: single oral dose 40 mg kg−1
Procedure: Finally, we evaluate the safety and pharmacokinetics of HBT to ensure its druggability. […] Single dose administration of HBT at 40 mg kg^−1 was uptaken rapidly with a maximal plasma concentration of ≈6.73 ng mL^−1 after 10 min (Figure S14A, Supporting Information).
Figure S13. Serum level of biochemical markers in mice of Ctrl and Ctrl + HBT groups. Data were analyzed using unpaired two-tailed t test and data were expressed as means ± SD, ns: no […]
Figure S14. Plasma concentration (A) and in vivo distribution (B) of HBT after single oral administration with dosage of 40mg/kg rat weight (n=5-6). The quantitation of HBT was performed by LC-MS/MS analysis. […]
or Fluo-4 AM working solution was added to each well and incubated at 37℃ for 20 minutes.
Then the cells were washed with PBS for 3 times and images were acquired using an ImageXpress Micro® Confocal High-Content Imaging System (Molecular Devices). The mean fluorescence intensity of cells positive for DCFH-DA or Fluo-4 AM staining was […]
4. Histology and Immunohistochemistry (IHC)
At the end of the experiment, mice were sacrificed and the hearts were harvested, fixed in 4% formalin, and paraffin embedded. Fibrosis was detected with Masson’s trichrome staining kit (Sigma) according to the manufacturer’s protocol. SGK1 expression of cardiomyocytes was determined by staining cells with antibodies specific for SGK1.
RT-PCR was performed to validate DEGs in the FoxO signaling pathway in response to Ext.R and also HBT’s effect on hypertrophic cardiomyocytes stimulated with phenylephrine. Total RNA isolation, reverse transcription and quantitative RT-PCR were performed using an Ultrapure RNA Kit, a HiFiScript First Strand cDNA Synthesis Kit, and an UltraSYBR Mixture Kit (CWBIO) respectively, according to the manufacturer's instructions. Relative target gene mRNA expression level was normalized to GAPDH. Primer sequences of genes […]
6. Pharmacokinetics studies
Twelve male Sprague-Dawley rats, weighing 250 ± 10 g, were purchased from Huafukang biological technology (Beijing, China). […]

SMILES: O=c1c(O)c(-c2ccc(O)cc2)oc2c(O)c(O)cc(O)c12 [HBT, herbacetin]
- expression of STIM1 ([1]; HBT 50 µmol): moderately inhibited
- FoxO1 phosphorylation ([1]; SGK1(S422D) expression, HBT 50 µmol): reverse the alternation
- FoxO1 subcellular localization ([1]; SGK1(S422D) transfection, HBT 50 µmol, confocal microscopy): restrain FoxO1 in the nucleus
- level of Orai1 ([1]; constitutively expressed SGK1, HBT 50 µmol): significantly inhibited
- phosphorylation of NDRG1 ([1]; continuously-activated form of SGK1, HBT 50 μmol): reduce the phosphorylation
- Tmax ([2]; male, Sprague-Dawley, plasma, rat, read-out: time of maximal plasma concentration (converted)): 10 min
- tissue distribution (heart, liver, kidney) ([2]; at time of maximal plasma concentration): readily detected
- maximal plasma concentration ([2]; rat): ≈ 6.73 ng mL^−1
